The source of these data is patent EP0335902B1, “MONOMERIC PHTHALOCYANINE REAGENTS” (BRITISH TECHNOLOGY GROUP USA INC., priority 1986, dated 1988).

Read-outs that look alike come from different tables or passages of the source. Some results are limits rather than exact numbers.

Data set [1] has as its system antimorphine monoclonal antibody. The experiment in a line: competition experiment with antimorphine monoclonal antibody and tritium-labeled morphine (relative immunoaffinity). In kind it is binding. As to the method: The relative immunoaffinity of morphine, the amino morphine analog, and the amino-morphine derivative of mono-PABA-sulfonyl aluminum phthalocyanine disulfonate was determined in a competition experiment with antimorphine monoclonal antibody and tritium-labeled morphine.

Data set [2] is described as follows: fluorescence and UV-VIS spectroscopy of phthalocyanine derivatives. It counts as physicochemical. An excerpt: As a family of chromophores the metallophthalocyanines are characterized by a very narrow and strong absorption in the red envelope centered around 670 nm (Eo=230,000) and a broad and less intense absorption (Eo=60,000) at around 350 nm.
It is contemplated that other metal atoms (M) with +3 valences or higher may take on an axial ligand(s) in the phthalocyanine macrocycle, thereby conferring a similar resistance to aggregation in aqueous solution. For use as fluorescent species, the metal should be diamagnetic and have a lower atomic weight than that of […], so as to avoid a heavy-atom quenching effect; suitable metal atoms for the latter purpose include aluminum, silicon, phosphorus, gallium, germanium, and tin. […] Both processes give rise to radiationless deactivation of the excited state and serve to decrease the fluorescent quantum yield.
The ultimate sensitivity of a fluorogenic enzyme assay is determined by the spectral properties of the generated fluorophore.

Data set [3] is described as follows: solubility of aluminum phthalocyanines in water and solvents. Particulars: for solubility in polar, protic solvents such as methanol: effect of axial ligand L. An excerpt:
The following "R" substituents (R₁ and/or R₂) bound to the phthalocyanine macrocycle 1 can serve as suitable water-solubilizing moieties: sulfonic acid groups (-SO₃H), sulfonate groups (-SO₃⁻, X⁺), carboxylic acid groups (-CO₂H), carboxylate groups (-CO₂⁻, X⁺), phosphoric acid groups (-PO₄H₂), phosphate groups (-PO₄⁻⁻, 2X⁺), phosphonate groups (-PO₃H or -PO₃⁻, X⁺), hydroxy or phenoxy groups (-OH), amino groups (-NH₂), and ammonium and pyridinium groups (-NR₄⁺, X⁻).
To enhance water solubility, L should be -OZ or -NZ₂ wherein Z is selected from among hydrogen, alkyl, acyl, and silyl groups, the latter three preferably being charged.

The conditions of data set [4]: λmax 678.5 nm, in chloronaphthalene; cited from earlier work.
Data set [5] is classed as physicochemical. On the procedure:
The phthalocyanines are thermally stable, and are often purified by sublimation at temperatures greater than 400°C. Chemically, the phthalocyanines are resistant to acidic or basic hydrolysis, oxidation, and reduction.

Regarding “3-(4-aminobutyl)morphine [amino morphine]”, the “Relative Affinity” value in data set [1] (relative affinity of antimorphine monoclonal antibody for competitor versus tritium-labeled morphine) is on record as 1.

`[OH][Al]1[n]2c3c4ccccc4c2N=C2N=C(N=c4c5ccccc5c([n]41)=NC1=NC(=N3)c3ccccc31)c1ccccc12` [aluminum phthalocyanine, reference compound]: in data set [2], the Stokes shift worked out at 330 nm. The solubility in water entry in data set [3] (water) is recorded as “poorly soluble in water”.

Regarding `[Cl][Al]1[n]2c3c4ccccc4c2/N=C2N=C(/N=c4/c5ccccc5/c([n]41)=N/C1=NC(=N\3)/c3ccccc31)c1ccccc1\2` [chloraluminum phthalocyanine], the “solubility in polar, protic solvents such as methanol” value in data set [3] was “but not chloraluminum phthalocyanine is soluble in polar, protic solvents”.

On to `c1ccc2c(c1)C1=NC2=Nc2c3ccccc3c3[n]2[Cu][n]2c(c4ccccc4c2=NC2=NC(=N3)c3ccccc32)=N1` [compound 9, Copper phthalocyanine], for which the “molar absorptivity ε” value in data set [4] is 218,500.

On to `[OH][Al]1[n]2c3c4ccccc4c2N=C2N=C(N=c4c5ccccc5c([n]41)=NC1=NC(=N3)c3ccccc31)c1ccccc12` [hydroxyaluminum phthalocyanine], for which the “solubility in polar, protic solvents such as methanol” value in data set [3] is recorded as “soluble in polar, protic solvents such as methanol”.

For `CN1CC[C@]23c4c5ccc(O)c4O[C@H]2[C@@H](O)C=C[C@H]3[C@H]1C5` [morphine, reference compound], the “Relative Affinity” value in data set [1] is reported as 1.

Regarding aluminum phthalocyanine trisulfonate, in data set [2], the Stokes shift worked out at 335 nm, the fluorescence emission lifetime is reported as 5 ns and the polarization coefficient was determined as 0.005. Also, in data set [2] (aggregated), the “quantum yield when aggregated” value is reported as less than 0.02 and the “quantum yield when aggregated, of its original value” is on record as “less than 4%”. The emission wavelength in data set [2] (excitation at 350 nm) worked out at 680 nm. Moreover, the solubility in water entry in data set [3] is on record as “high water solubility”. In addition, the photochemical stability result in data set [5] is on record as “photochemically inert”.

As for “copper(II)phthalocyanine trisulfonate [reference compound]”, the “fluorescence quantum yield relative to aluminum(III)phthalocyanine trisulfonate” value in data set [2] (comparative example) is reported as “more than 200 times less”.
